Where two headings read alike, the source gives them in different places.
What was measured:
[1] = for MTD-1 (Pramipexole alone): Period 1
Procedure: The starting dose of pramipexole was 0.5 mg and the dose was increased daily by 0.5 mg increments.
When a subject reached FID-1 on pramipexole alone, the subject was washed out for at least 5 days, and then entered Period 2 of the study during which the subject received single daily oral doses of pramipexole starting at 0.5 mg and titrated upward by 0.5 mg increments, together with oral aprepitant (80 mg) until subjects again reached an intolerable dose defined as above. The FID on oral pramipexole plus oral aprepitant was referred to as FID-2.
If a subject reached FID-2 during Period 2 at the same or lower dose than FID-1, and providing the investigator judged there were no safety issues and the subject was consenting, the subject received the same dose of pramipexole as the FID-2 dose together with a higher dose of oral aprepitant (120 mg) on the next day and the protocol specified that said subject should continue with the remainder of the dose titration with the higher dose of oral aprepitant (120 mg) until they reach the intolerable dose (FID2+). All other provisions of the protocol remained unchanged. Assessments were the same as those planned for the dose escalation day.
In addition, a laboratory panel was taken at screening and at the end of the study.

[2] = 5 mg/day of pramipexole, cited from earlier work
[3] = target: synuclein (Homo sapiens, UniProt P37840); settings: in vitro; cited from earlier work
[4] = test system: dopaminergic neurons in a mouse PD model; settings: cited from earlier work
[5] = target: human wild-type alpha-synuclein (Homo sapiens, UniProt P37840); settings: in vitro; by H2O2 plus cytochrome c; cited from earlier work
[6] = target: alpha-synuclein in human neuroblastoma SH-SY5Y cells (Homo sapiens, UniProt P37840); settings: cited from earlier work
[7] = doses approved for motor symptoms of PD; 535 PD patients; cited from earlier work

Question: Which results are given for `CCCN[C@H]1CCc2nc(N)sc2C1` [Pramipexole, (S)-6-propylamino-4,5,6,7-tetrahydro-1,3-benzothiazole-2-amine]?
Answer: MTD-1 (Pramipexole alone) ([1]; Subject 1001): 2.0 mg; MTD-1 (Pramipexole alone) ([1]; Subject 1006, NA, not tolerated at 0.5 mg): NA (not tolerated; MTD-1 (Pramipexole alone) ([1]; Subject 1007): 4.0 mg; MTD-1 (Pramipexole alone) ([1]; Subject 1008): 1.0 mg; Reaching of FID-1 ([1]; human, in vivo): All subjects reached FID-1; Dose limiting toxicity ([1]; in vivo): gastro-intestinal adverse events; Nausea [2]: 76 % of patients; Vomiting [2]: 39 % of patients; Patients not able to complete the study ([2]; presumably because of intolerable GI adverse events): 36 % of patients; Synuclein oligomer formation [3]: diminishes synuclein oligomer formation; Toxic effects of rotenone on dopaminergic neurons ([4]; mouse PD model): inhibits the toxic effects of rotenone; Immunoreactivity for alpha-synuclein ([4]; rotenone mouse PD model): reducing immunoreactivity for alpha-synuclein; Oligomerization of human wild-type alpha-synuclein [5]: decreases the in vitro oligomerization; Aggregation of alpha-synuclein [6]: inhibit the aggregation of alpha-synuclein; Neuroprotective (disease modifying) activity [7]: failed to evidence neuroprotective (i.e., disease modifying) activity

Source: patent publication US11160809B2, “NK1-antagonist combination and method for treating synucleinopathies” (priority 2017, dated 2021)
